This is an account of results in US20260118350A1, “Fluorescent Probes for Peroxidase-Mediated Fluorescent Signal Amplification” (Seoul National University R&DB Foundation, priority 2024, published 2026).

One assay deals with endogenous peroxidases. The assay can be described thus: Reaction with endogenous peroxidases in live cells. Type of assay: cell-based. The conditions noted are these: high concentrations (≥100 μM) for 1 h in live cells. The method, then:
However, our focus was on utilizing JFT for CLEM imaging under fixed conditions. For live-cell APEX2 labeling experiments, JF or JFA (50-100 μM) was incubated with 1 mM H2O2 for 1 min. Both JF and JFA are cell-permeable and can react with APEX2 under live-cell conditions. […] We observed that a 5-min incubation of high concentrations of JFT1 ([…]) and H2O2 (0.5-1 mM) can generate selective FLEX labeling where APEX2-POIs are expressed (see Methods for details). For live-cell experiments, it would be highly advantageous to further develop JF probes with negligible activity against endogenous peroxidase in live-cell conditions while still maintaining reactivity for the APEX or HRP reaction. Since JFT was synthesized from JFA, this strategy opens up the possibility of generating further variations in JFT or other JF-based probes using various azido-click moieties. This approach could lead to the development of improved probes with enhanced performance for live-cell imaging applications.

The test system of the next assay is TOM20-V5-APEX2. The assay can be described thus: Live-cell APEX labeling using JF probes. Type of assay: cell-based, Human. Conditions: 5 min pre-incubation, 1 mM H2O2 1 min, TOM20-V5-APEX2-expressing cells. The method, then:
To visualize various APEX2-POIs in live cells, JF or JFA (50-100 μM) and 1 mM H2O2 were treated to APEX2-POI expressing cells during the live stage. After treatment, cells were washed thrice with DPBS and then fixed with 4% PFA in 1×DPBS for 15 minutes at room temperature. For immuno-fluorescence imaging, cells were permeabilized with −20° C. methanol for 5 minutes, followed by the standard immunofluorescence staining protocol. To detect JF or JFA fluorescence and immunofluorescence, we used the GFP channel (excitation at 488 nm), RFP channel (excitation at 561 nm), and Cy5 channel (excitation at 647 nm) of a confocal light microscope (FV3000, Olympus, Japan). HeLa cells were used for imaging experiments.
Further, the APEX reaction in live cells utilizing the JF probes in cells expressing TOM20-V5-APEX2 at the cytosolic face of the outer mitochondrial membrane (OMM) were examined. Each JF probe (JF, JFA, JFT1, JFT2, and JFT3) was pre-incubated with the cells for 5 min, followed by the addition of 1 mM H2O2 and incubation for 1 min to activate the peroxidase.

The next assay deals with T1, HRP (Armoracia rusticana, UniProt P00433).
T1 sequence (P00433 31-338 limits assumed): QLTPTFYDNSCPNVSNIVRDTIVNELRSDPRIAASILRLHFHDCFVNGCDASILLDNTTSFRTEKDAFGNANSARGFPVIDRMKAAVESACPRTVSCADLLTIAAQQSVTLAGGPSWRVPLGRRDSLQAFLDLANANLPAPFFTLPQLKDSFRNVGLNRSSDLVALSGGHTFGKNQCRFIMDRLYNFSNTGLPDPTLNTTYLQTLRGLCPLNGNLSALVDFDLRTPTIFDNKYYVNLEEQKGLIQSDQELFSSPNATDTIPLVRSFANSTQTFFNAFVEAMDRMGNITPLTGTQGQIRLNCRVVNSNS
The assay can be described thus: Polymerization of JF catalyzed by HRP. Type of assay: biochemical, horseradish. As for the experimental part:
JF (400 μM) was prepared by dissolving the powder in DMSO. To induce the polymerization of JF, 10 μM of HRP was added along with 2 mM H2O2. JF-precipitate starts forming after 30 minutes of incubation with HRP and H2O2. This reaction was carried out at room temperature for 24 h to acquire the polymerized JF. The mixture was centrifuged at 15,000 g for 10 min to separate the polymerized JF product from non-reacted JF.

The test system of assay [1] is HeLa cells transiently expressing TMEM192-V5-APEX2. The assay can be described thus: Lysosome diameter and lysosome-mitochondria contact under lysosomal stressors (JFT1 labeling by TMEM192-V5-APEX2). Type of assay: cell-based, Human. Conditions: for fold increase of lysosomal diameter vs DMSO treatment / mean lysosomal diameter: BFA 100 nM or U18666A 2 μg/ml, 18 h; for mitochondria-lysosome co-localization: HeLa cells co-expressing mito-mEosEM and TMEM192-V5-APEX2; for mean lysosomal diameter: mean (±SEM). The method, then:
Fluorescently labeled lysosome (JFT1-labeled or Lysotracker Red, RFP channel) and mitochondria (mito-mEosEM, GFP channel) area were analyzed using Fiji/ImageJ (National Institutes of Health, USA). Area corresponding to the colocalization of lysosome-mitochondria were delimited manually by thresholding keeping the same threshold for control. The colocalized area was measured for 5 cells in each group. To measure lysosome diameter, we utilized Fiji/ImageJ. Initially, the images were converted to 8-bit and the pixel measurements were calibrated using a scale bar. Circular lysosomes were then selected and a line representing the diameter of each selected lysosome was drawn, referencing the limiting membrane according to the JFT1 fluorescence signal. Subsequently, we utilized the “analyze and measure” feature of ImageJ, which generates a table with various parameters such as area and length. To convert the length from pixels to micrometers, we applied the following formula: (pixel diameter/pixels on the scale bar)×10 μm. Once the values were converted, they were plotted and statistical analysis for unpaired t-test was performed using Prism GraphPad software ([…] et al., 2021). HeLa cells transiently expressing TMEM192-V5-APEX2 were plated on coverslips (thickness no. 1.5, radius 18 mm). The cells were then treated with DMSO or U18666A (2 ug/ml), Bafilomycin A1 (100 nM) in DMEM for 18 h at 37° C. and washed three times with cold DPBS. The cells were fixed in 4% paraformaldehyde for 15 min at room temperature. Next, JFT1 labeling was done using 100 μM of the probe and 1 mM H2O2 for 5 min. Reaction was quenched and cells were permeabilized for immunofluorescence imaging with cold methanol for 5 min at -20° C., followed by washing with DPBS and blocking for 1 h with 2% bovine serum albumin in DPBS at room temperature.

Regarding `C#CC[n+]1c(/C=C/c2ccc(O)cc2)sc2ccccc21` [JFA, (E)-2-(4-hydroxystyryl)-3-(prop-2-yn-1-yl)benzo[d]thiazol-3-ium], the “reactivity with endogenous peroxidases” value in the assay with endogenous peroxidases is listed as “can also react with endogenous peroxidases”. Also, in the assay with TOM20-V5-APEX2, the “fluorescence staining in live cells” value was “red fluorescence stains”.

Regarding `CC[n+]1c(/C=C/c2ccc(O)cc2)sc2ccccc21` [JF, (E)-3-ethyl-2-(4-hydroxystyryl)benzo[d]thiazol-3-ium, reference compound], the “reactivity with endogenous peroxidases” value in the assay on endogenous peroxidases is “can also react with endogenous peroxidases”. Moreover, the “fluorescence staining in live cells” value in the assay on TOM20-V5-APEX2 is “red fluorescence stains”. For the same molecule, the “precipitate formation upon HRP-mediated reaction” value on HRP (HRP and H2O2) is “macroscopic precipitate deposition”. The “time at which JF-precipitate starts forming” value at HRP (JF 400 μM, 10 μM HRP, 2 mM H2O2, room temperature) was 30 min.

On to `CO/C1=C\C(C)=C\[C@@H](C)[C@@H](O)[C@@H](C)C/C(C)=C/C=C/[C@H](OC)[C@@H]([C@@H](C)[C@@H](O)[C@H](C)[C@@]2(O)C[C@@H](O)[C@H](C)[C@@H](C(C)C)O2)OC1=O` [Bafilomycin A1], for which, in assay [1], the “fold increase of lysosomal diameter vs DMSO treatment” value came out at 2.7 fold, the mitochondria-lysosome co-localization result is given as “more merged patterns” and the mean lysosomal diameter is 1.20 μm.

Regarding `CCN(CC)CCO[C@H]1CC[C@@]2(C)C(=CC[C@@H]3[C@@H]2CC[C@]2(C)C(=O)CC[C@@H]32)C1` [U18666A], in assay [1], the “fold increase of lysosomal diameter vs DMSO treatment” value is 2.2 fold, the mitochondria-lysosome co-localization result is listed as “enhanced co-localization” and the mean lysosomal diameter is 0.87 μm.
